Reference: patent US7772241B2, “Variolin derivatives and their use as antitumor agents” (Pharma Mar S.A., priority 2001, dated 2010)
Read-outs that look alike come from different tables or passages of the source.

Tests used:
[1] = test system: K-562; test: Inhibition of cells growth by colorimetric (SRB) assay, K-562; settings: SRB assay, 48 hours exposure
Summary of the method: (§1)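 Human tumour cells seeded at 5×10^3/well in RPMI 1640 10% FBS, attached 18 h, then exposed 48 h to samples at 10 to 10^−8 μg/ml in DMSO/EtOH/PBS (0.5:0.5:99). Growth read by SRB staining after TCA fixation, OD 490 nm, triplicate wells; GI, TGI and LC derived.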

[2] = test system: A-549; test: Inhibition of cells growth by colorimetric (SRB) assay, A-549
Summary of the method: as §1

[3] = test system: SK-MEL-28; test: Inhibition of cells growth by colorimetric (SRB) assay, SK-MEL-28; settings: SRB assay, 48 hours exposure
Summary of the method: as §1

[4] = test system: HT-29; test: Inhibition of cells growth by colorimetric (SRB) assay, HT-29
Summary of the method: as §1

[5] = test system: LoVo; test: Inhibition of cells growth by colorimetric (SRB) assay, LoVo; settings: SRB assay, 48 hours exposure
Summary of the method: as §1

[6] = test system: LoVo-Dox; test: Inhibition of cells growth by colorimetric (SRB) assay, LoVo-Dox; settings: SRB assay, 48 hours exposure
Summary of the method: as §1

[7] = test system: DU-145; test: Inhibition of cells growth by colorimetric (SRB) assay, DU-145; settings: SRB assay, 48 hours exposure
Summary of the method: as §1

[8] = test system: LNCaP; test: Inhibition of cells growth by colorimetric (SRB) assay, LNCaP; settings: SRB assay, 48 hours exposure
Summary of the method: as §1

[9] = test system: SK-BR-3; test: Inhibition of cells growth by colorimetric (SRB) assay, SK-BR-3; settings: SRB assay, 48 hours exposure
Summary of the method: as §1

[10] = test system: IGROV-1; test: Inhibition of cells growth by colorimetric (SRB) assay, IGROV-1; settings: SRB assay, 48 hours exposure
Summary of the method: as §1

[11] = test system: IGROV-ET; test: Inhibition of cells growth by colorimetric (SRB) assay, IGROV-ET; settings: SRB assay, 48 hours exposure
Summary of the method: as §1

[12] = test system: HeLa; test: Inhibition of cells growth by colorimetric (SRB) assay, HeLa; settings: SRB assay, 48 hours exposure
Summary of the method: as §1

[13] = test system: HeLa-APL; test: Inhibition of cells growth by colorimetric (SRB) assay, HeLa-APL; settings: SRB assay, 48 hours exposure
Summary of the method: as §1

[14] = test system: PANC-1; test: Inhibition of cells growth by colorimetric (SRB) assay, PANC-1; settings: SRB assay, 48 hours exposure
Summary of the method: as §1

[15] = Inhibition of cells growth by colorimetric (SRB) assay, HMEC1; settings: human, HMEC1 cells, LC50 H-MEC-1, SRB assay, 48 hours exposure
[16] = test system: HMEC1; test: as above

CSc1nccc(-c2c3c(O)ccnc3n3c(N)nccc23)n1 [Compound 95]
K-562 TGI [1]: 3.08E−05
GI50 ([1]; read-out: K-562 GI50): ≥ 30.8 µM
CC50 ([1]; read-out: K-562 LC50): ≥ 30.8 µM
GI50 ([2]; Homo sapiens, A549, 48 h, read-out: GI50 A-549, SRB assay, 48 hours exposure): ≥ 30.8 µM
CC50 ([2]; Homo sapiens, A549, 48 h, read-out: LC50 A-549, SRB assay, 48 hours exposure): ≥ 30.8 µM
A-549 TGI ([2]; SRB assay, 48 hours exposure): 3.08E−05
TGI A-549 ([2]; SRB assay, 48 hours exposure): 3.08E−05
GI50 ([2]; read-out: A-549 GI50, SRB assay, 48 hours exposure): 8.63 µM
CC50 ([2]; read-out: A-549 LC50, SRB assay, 48 hours exposure): ≥ 30.8 µM
MEL-28 TGI [3]: 3.08E−05
GI50 ([3]; read-out: MEL-28 GI50): ≥ 30.8 µM
CC50 ([3]; read-out: MEL-28 LC50): ≥ 30.8 µM
GI50 ([4]; Homo sapiens, HT-29, 48 h, read-out: GI50 HT-29, SRB assay, 48 hours exposure): ≥ 30.8 µM
CC50 ([4]; Homo sapiens, HT-29, 48 h, read-out: LC50 HT-29, SRB assay, 48 hours exposure): ≥ 30.8 µM
HT-29 TGI ([4]; SRB assay, 48 hours exposure): 3.08E−05
TGI HT-29 ([4]; SRB assay, 48 hours exposure): 3.08E−05
GI50 ([4]; read-out: HT-29 GI50, SRB assay, 48 hours exposure): ≥ 30.8 µM
CC50 ([4]; read-out: HT-29 LC50, SRB assay, 48 hours exposure): ≥ 30.8 µM
LOVO TGI [5]: 3.08E−05
GI50 ([5]; read-out: LOVO GI50): 11.3 µM
CC50 ([5]; read-out: LOVO LC50): ≥ 30.8 µM
LOVO-DOX TGI [6]: 3.08E−05
GI50 ([6]; read-out: LOVO-DOX GI50): ≥ 30.8 µM
CC50 ([6]; read-out: LOVO-DOX LC50): ≥ 30.8 µM
DU-145 TGI [7]: 3.08E−05
GI50 ([7]; read-out: DU-145 GI50): 10.2 µM
CC50 ([7]; read-out: DU-145 LC50): ≥ 30.8 µM
LN-caP TGI [8]: 3.08E−05
GI50 ([8]; read-out: LN-caP GI50): 4.1 µM
CC50 ([8]; read-out: LN-caP LC50): ≥ 30.8 µM
SK-BR-3 TGI [9]: 3.08E−05
GI50 ([9]; read-out: SK-BR-3 GI50): 1.52 µM
CC50 ([9]; read-out: SK-BR-3 LC50): ≥ 30.8 µM
IGROV TGI [10]: 3.08E−05
GI50 ([10]; read-out: IGROV GI50): ≥ 30.8 µM
CC50 ([10]; read-out: IGROV LC50): ≥ 30.8 µM
IGROV-ET TGI [11]: 3.08E−05
GI50 ([11]; read-out: IGROV-ET GI50): 3.95 µM
CC50 ([11]; read-out: IGROV-ET LC50): ≥ 30.8 µM
HELA TGI [12]: 2.57E−08
GI50 ([12]; read-out: HELA GI50): 0.00916 µM
HELA-APL TGI [13]: 1.31E−08
GI50 ([13]; read-out: HELA-APL GI50): 0.00546 µM
CC50 ([13]; read-out: HELA-APL LC50): 0.0382 µM
PANC-1 TGI [14]: 3.08E−05
GI50 ([14]; read-out: PANC-1 GI50): 24.2 µM
CC50 ([14]; read-out: PANC-1 LC50): ≥ 30.8 µM
CC50 at 48 h [15]: ≥ 30.8 µM
GI50 ([16]; Homo sapiens, HMEC-1, 48 h, read-out: GI50 H-MEC-1, SRB assay, 48 hours exposure): ≥ 30.8 µM
TGI H-MEC-1 ([16]; SRB assay, 48 hours exposure, in M (unit assumed)): 3.08E−05
